# Values of other authors as cited in US20050209190A1, “Camptothecin complexes” (priority 2000, published 2005).
# Key:
# [1] = system: human colon cancer xenografts; conditions: mouse, in vivo
# [2] = administered intravenously; studies abandoned
# [3] = system: nontumorigenic human cells; conditions: in vitro
# tumorigenic human cells = conditions: in vitro
smiles,measurement,setting,value
"CC[C@@]1(O)C(=O)OCc2c1cc1n(c2=O)Cc2cc3cc4c(cc3nc2-1)OCO4 [10,11 MD, 10,11-Methylendioxy-20(S)-Camptothecin]",anticancer activity against human colon cancer xenografts,[1],high anticancer activity
CC[C@@](O)(C(=O)[O-])c1cc2n(c(=O)c1CO)Cc1cc3ccccc3nc1-2.[Na+] [CPT Na+],potency in clinical trials,[2],low potency
same,toxicity in clinical trials,[2],high toxicity
"CC[C@@]1(O)C(=O)OCc2c1cc1n(c2=O)Cc2cc3c(N)cccc3nc2-1 [Example 9AC, 9-Amino-20(S)-Camptothecin]",anticancer activity against human colon cancer xenografts,[1],high anticancer activity
"CC[C@@]1(O)C(=O)OCc2c1cc1n(c2=O)Cc2cc3c([N+](=O)[O-])cccc3nc2-1 [Example 9NC, 9-nitrocamptothecin]",growth of human tumor xenografts,human tumor xenografts; immunodeficient nude mice,inhibited the growth
same,activity against human tumor xenograft models,"human tumor xenografts; mouse, in vivo",high activity
same,regression of human tumors established as xenografts,human tumor xenografts; nude mice,induced regression
"CC[C@@]1(O)C(=O)OCc2c1cc1n(c2=O)Cc2cc3ccccc3nc2-1 [CPT, 20(S)-camptothecin]",solubility in water,,insoluble in water
same,effect on nontumorigenic cells,[3],cytostatic
same,effect on tumorigenic cells,tumorigenic human cells,cytotoxic
